Reference: patent US9757472B2, “Proteas stabilized antibacterial peptides for S. aureus” (Arizona Board of Regents on Behalf of Arizona State …, priority 2014, dated 2017)
Where two headings read alike, the source gives them in different places. Starred links: 1 amine or outer side, 2 acyl side, 3 side chain; linkers in the order of their positions; H or OH if unused. Positions of bridges follow the written chain, without caps; N, C: chain ends. Non-standard residues stand in square brackets, D forms with d. Residues, ends and D or L forms follow the SMILES beside them. Chains are numbered I, II in the order given. No end group written: not given here. ξ: configuration not given here. *: point of attachment. Succinimide(1-C2H4CO,3-yl) = O=C1CC([*:1])C(=O)N1CCC(=O)[*:2]; Biotin = O=C1N[C@H]2[C@H](CS[C@H]2CCCCC(=O)*)N1; X2 = O=C1NC2CS[C@@H](CCCCC(=O)*)C2N1; X1 = O=C1NC2CSC(CCCCC(=O)*)C2N1; ξK = NCCCCC(N)C(=O)O; ξC = NC(CS)C(=O)O; ξS = NC(CO)C(=O)O; tBu = CC(C)(C)*

How the values were obtained:
[1] = test system: MSSA
[2] = test system: MRSA
[3] = test system: red blood cell
[4] = test system: MSSA; assay: Minimum bactericidal concentration (MBC) / bactericidal activity against MSSA; type: cell-based, S. aureus; settings: for MBC (μM) (MSSA): 14 h
[5] = test system: red blood cell; assay: Hemolysis (H50); settings: Table 3
[6] = in vitro; settings: mouse, serum

Compound	MIC (μM) (MSSA) [1] [µM]	H50 [3] [µM]	MBC (μM) (MSSA) [4] [µM]	other results
N=C(N)NCCC[C@H](NC(=O)[C@H](CCCNC(=N)N)NC(=O)[C@@H](CCCCN)NC(=O)[C@@H](CCCCN)NC(=O)CNC(=O)[C@H](CO)NC(=O)[C@@H](N)CS)C(=O)N[C@@H](Cc1c[nH]cn1)C(=O)N[C@@H](Cc1c[nH]cn1)C(=O)N[C@H](CCCNC(=N)N)C(=O)N[C@H](CCCNC(=N)N)C(=O)N[C@H](CCCCN)C(=O)N[C@H](CCCCN)C(=O)N[C@@H](CCCNC(=N)N)C(=O)N[C@H](CCCNC(=N)N)C(=O)N[C@@H](Cc1c[nH]cn1)C(=O)N[C@@H](Cc1c[nH]cn1)C(=O)N[C@H](CCCNC(=N)N)C(=O)N[C@H](CCCNC(=N)N)C(=O)N[C@@H](CCCCN)C(=O)O [D1, CSGkkRRHHrrkkRrHHrrK] (H-CSG[dK][dK]RRHH[dR][dR][dK][dK]R[dR]HH[dR][dR]K-OH; N-terminus and C-terminus assumed)	<50			
N=C(N)NCCC[C@H](NC(=O)CNC(=O)[C@H](CO)NC(=O)[C@@H](N)CS)C(=O)N[C@H](CCCNC(=N)N)C(=O)N[C@H](CCCCN)C(=O)N[C@H](CCCNC(=N)N)C(=O)N1CCC[C@H]1C(=O)N[C@H](CCCNC(=N)N)C(=O)N[C@H](CCCNC(=N)N)C(=O)N[C@H](CCCCN)C(=O)N[C@H](CCCNC(=N)N)C(=O)N1CCC[C@H]1C(=O)N[C@@H](CCCNC(=N)N)C(=O)N[C@H](CCCNC(=N)N)C(=O)N[C@H](CCCCN)C(=O)N[C@@H](CCCNC(=N)N)C(=O)N1CCC[C@H]1C(=O)N[C@@H](CCCNC(=N)N)C(=O)N[C@H](CCCNC(=N)N)C(=O)O [D2, CSGRrkrPrrkrPRrkRPRr] (H-CSGR[dR][dK][dR]P[dR][dR][dK][dR]PR[dR][dK]RPR[dR]-OH; N-terminus and C-terminus assumed)	<50			
I: Ac-[dR]W[dR][dR]H[dK]H[dF][dK][dR]PH[dR][dK]H[dK][dR]GSC-NH2 / II: Ac-[dR]W[dR][dR]H[dK]H[dF][dK][dR]PH[dR][dK]H[dK][dR]GSC-NH2 / III: [ξK]G[ξS][ξK][ξS]G[ξK](X2)G[ξC](tBu)-NH2 (linker I:20-III:1, II:20-III:N via Succinimide(1-C2H4CO,3-yl)) [Ly-Ly-Sc0]	12.5	>500	12.5	MIC (μM) MRSA (USA300) [2]: 6.25 µM
I: CSGEMWAIMPPIIKPDNKGH-NH2 / II: CSGR[dR][dK][dR]P[dR][dR][dK][dR]PR[dR][dK]RPR[dR]-NH2 / III: KGSKSGK(Biotin)GC(tBu)-NH2 (linker I:1-III:1, II:1-III:N via Succinimide(1-C2H4CO,3-yl)) [D2-88-SC0]				H50 [5]: >500 µM
I: CSGR[dR][dK][dR]P[dR][dR][dK][dR]PR[dR][dK]RPR[dR] / II: CSGR[dR][dK][dR]P[dR][dR][dK][dR]PR[dR][dK]RPR[dR] / III: [ξK]G[ξS][ξK][ξS]G[ξK](X2)G[ξC](tBu)-NH2 (linker I:1-III:1, II:1-III:N via Succinimide(1-C2H4CO,3-yl)) [D2-D2-Sc0, CSGRrkrPrrkrPRrkRPRr-Sc0-CSGRrkrPrrkrPRrkRPRr]	5	>500	5	
I: CSG[dK][dK]RRHH[dR][dR][dK][dK]R[dR]HH[dR][dR]K / II: CSG[dK][dK]RRHH[dR][dR][dK][dK]R[dR]HH[dR][dR]K / III: [ξK]G[ξS][ξK][ξS]G[ξK](X2)G[ξC](tBu)-NH2 (linker I:1-III:1, II:1-III:N via Succinimide(1-C2H4CO,3-yl)) [D1-D1-Sc0, CSGkkRRHHrrkkRrHHrrK-Sc0-CSGkkRRHHrrkkRrHHrrK]	10	>500	5	
I: D[dR]IFH[dK]MQH[dK]PY[dK]I[dK][dK][dR]GSGGGK[ξK](X1)-NH2 / II: [dR]W[dR][dR]H[dK]HF[dK][dR]PH[dR][dK]H[dK][dR]GSG (amide I:23-II:C) [Synbody (4)]				MIC, MRSA (n = 2) [2]: 3.3 µM; half-life [6]: ~2.17 h; MIC, MSSA (n = 3) [1]: 2.2 µM; H50 = concentration that causes 50% hemolysis [3]: >200 µM; bactericidal activity against MSSA (in words) [4]: some bactericidal activity against MSSA
